Results from PubChem BioAssay (NCI).
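Briefly, cells in 96-well plates were exposed to five compound concentrations for 48 h, and endpoints were estimated by linear interpolation. At the TGI there is no net growth.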

What was measured:
Experiment in all cases: NCI tumour cell line growth inhibition, 48 h
SF-295 CNS = test system: SF-295 CNS
MALME-3M melanoma = test system: MALME-3M melanoma
SF-268 CNS = test system: SF-268 CNS
SR leukemia = test system: SR leukemia
RPMI-8226 leukemia = test system: RPMI-8226 leukemia
NCI-H522 lung = test system: NCI-H522 lung
M14 melanoma = test system: M14 melanoma
HOP-92 NSCLC = test system: HOP-92 NSCLC
LOX IMVI melanoma = test system: LOX IMVI melanoma
OVCAR-4 ovarian = test system: OVCAR-4 ovarian
HOP-62 NSCLC = test system: HOP-62 NSCLC
OVCAR-5 ovarian = test system: OVCAR-5 ovarian
NCI-H460 lung = test system: NCI-H460 lung
NCI/ADR-RES ovarian = test system: NCI/ADR-RES ovarian
OVCAR-8 ovarian = test system: OVCAR-8 ovarian
UO-31 renal = test system: UO-31 renal
EKVX NSCLC = test system: EKVX NSCLC
T-47D breast = test system: T-47D breast
UACC-62 melanoma = test system: UACC-62 melanoma
HS 578T breast = test system: HS 578T breast
SNB-19 CNS = test system: SNB-19 CNS
SK-OV-3 ovarian = test system: SK-OV-3 ovarian
PC-3 prostate = test system: PC-3 prostate
MDA-N = test system: MDA-N
BT-549 breast = test system: BT-549 breast
CAKI-1 renal = test system: CAKI-1 renal
IGROV1 ovarian = test system: IGROV1 ovarian
RXF 393 renal = test system: RXF 393 renal
UACC-257 melanoma = test system: UACC-257 melanoma
MDA-MB-435 = test system: MDA-MB-435
NCI-H23 lung = test system: NCI-H23 lung
MDA-MB-231 breast = test system: MDA-MB-231 breast
ACHN renal = test system: ACHN renal
COLO 205 colon = test system: COLO 205 colon
CCRF-CEM leukemia = test system: CCRF-CEM leukemia
HCT-15 colon = test system: HCT-15 colon
SW-620 colon = test system: SW-620 colon
TK-10 renal = test system: TK-10 renal
U251 CNS = test system: U251 CNS
HL-60(TB) leukemia = test system: HL-60(TB) leukemia
KM12 colon = test system: KM12 colon
NCI-H226 lung = test system: NCI-H226 lung
A549 NSCLC = test system: A549 NSCLC
HCT-116 colon = test system: HCT-116 colon
MCF7 breast = test system: MCF7 breast
HT29 colon = test system: HT29 colon
K-562 leukemia = test system: K-562 leukemia
A498 renal = test system: A498 renal
SK-MEL-5 melanoma = test system: SK-MEL-5 melanoma
SNB-75 CNS = test system: SNB-75 CNS
SK-MEL-2 melanoma = test system: SK-MEL-2 melanoma
MOLT-4 leukemia = test system: MOLT-4 leukemia
SF-539 CNS = test system: SF-539 CNS
OVCAR-3 ovarian = test system: OVCAR-3 ovarian
786-0 renal = test system: 786-0 renal
SN12C renal = test system: SN12C renal
DU-145 prostate = test system: DU-145 prostate
HCC-2998 colon = test system: HCC-2998 colon
SK-MEL-28 melanoma = test system: SK-MEL-28 melanoma

With `Cc1ccc(S(=O)(=O)NC(CCC(=O)NN)C(=O)NN)cc1` (centres undefined) the TGI (SF-295 CNS) was > 100 µM, the TGI (MALME-3M melanoma) was > 100 µM and the TGI (SF-268 CNS) was > 100 µM. For the same compound, the TGI (SR leukemia) was > 100 µM, the TGI (RPMI-8226 leukemia) was > 100 µM and the TGI (NCI-H522 lung) was > 100 µM. For the same compound, the TGI (M14 melanoma) was > 100 µM, the TGI (HOP-92 NSCLC) was > 100 µM and the TGI (LOX IMVI melanoma) was > 100 µM. The TGI (OVCAR-4 ovarian) was > 100 µM, the TGI (HOP-62 NSCLC) was > 100 µM and the TGI (OVCAR-5 ovarian) was > 100 µM. The TGI (NCI-H460 lung) was 21.6 µM, the TGI (NCI/ADR-RES ovarian) was > 100 µM and the TGI (OVCAR-8 ovarian) was > 100 µM. The TGI (UO-31 renal) was > 100 µM, the TGI (EKVX NSCLC) was > 100 µM and the TGI (T-47D breast) was > 100 µM. The TGI (UACC-62 melanoma) was > 100 µM, the TGI (HS 578T breast) was > 100 µM and the TGI (SNB-19 CNS) was > 100 µM. The TGI (SK-OV-3 ovarian) was > 100 µM, the TGI (PC-3 prostate) was > 100 µM and the TGI (MDA-N) was > 100 µM. The TGI (BT-549 breast) was > 100 µM, the TGI (CAKI-1 renal) was > 100 µM and the TGI (IGROV1 ovarian) was > 100 µM. For the same compound, the TGI (RXF 393 renal) was > 100 µM, the TGI (UACC-257 melanoma) was > 100 µM and the TGI (MDA-MB-435) was > 100 µM. For the same compound, the TGI (NCI-H23 lung) was > 100 µM, the TGI (MDA-MB-231 breast) was > 100 µM and the TGI (ACHN renal) was > 100 µM. For the same compound, the TGI (COLO 205 colon) was > 100 µM, the TGI (CCRF-CEM leukemia) was > 100 µM and the TGI (HCT-15 colon) was > 100 µM. The TGI (SW-620 colon) was > 100 µM, the TGI (TK-10 renal) was > 100 µM and the TGI (U251 CNS) was > 100 µM. The TGI (HL-60(TB) leukemia) was > 100 µM, the TGI (KM12 colon) was > 100 µM and the TGI (NCI-H226 lung) was > 100 µM. For the same compound, the TGI (A549 NSCLC) was > 100 µM, the TGI (HCT-116 colon) was > 100 µM and the TGI (MCF7 breast) was > 100 µM. For the same compound, the TGI (HT29 colon) was > 100 µM, the TGI (K-562 leukemia) was > 100 µM and the TGI (A498 renal) was > 100 µM. The TGI (SK-MEL-5 melanoma) was > 100 µM, the TGI (SNB-75 CNS) was > 100 µM and the TGI (SK-MEL-2 melanoma) was > 100 µM. The TGI (MOLT-4 leukemia) was > 100 µM, the TGI (SF-539 CNS) was > 100 µM and the TGI (OVCAR-3 ovarian) was > 100 µM. For the same compound, the TGI (786-0 renal) was > 100 µM.

With `COc1ccccc1N1C(=O)C2C3c4ccccc4C(OC(C)=O)(c4ccccc43)C2C1=O` (centres undefined) the TGI (SF-295 CNS) was > 100 µM, the TGI (MALME-3M melanoma) was > 100 µM and the TGI (SF-268 CNS) was > 100 µM. The TGI (SR leukemia) was > 100 µM, the TGI (RPMI-8226 leukemia) was > 100 µM and the TGI (M14 melanoma) was > 100 µM. For the same compound, the TGI (LOX IMVI melanoma) was > 100 µM, the TGI (OVCAR-4 ovarian) was > 100 µM and the TGI (HOP-62 NSCLC) was > 100 µM. For the same compound, the TGI (OVCAR-5 ovarian) was > 100 µM, the TGI (NCI-H460 lung) was > 100 µM and the TGI (NCI/ADR-RES ovarian) was > 100 µM. For the same compound, the TGI (SN12C renal) was > 100 µM, the TGI (OVCAR-8 ovarian) was > 100 µM and the TGI (UO-31 renal) was > 100 µM. For the same compound, the TGI (EKVX NSCLC) was > 100 µM, the TGI (T-47D breast) was > 100 µM and the TGI (UACC-62 melanoma) was > 100 µM. For the same compound, the TGI (HS 578T breast) was 52.1 µM, the TGI (SNB-19 CNS) was > 100 µM and the TGI (SK-OV-3 ovarian) was > 100 µM. For the same compound, the TGI (PC-3 prostate) was > 100 µM, the TGI (MDA-N) was > 100 µM and the TGI (BT-549 breast) was > 100 µM. The TGI (CAKI-1 renal) was > 100 µM, the TGI (IGROV1 ovarian) was > 100 µM and the TGI (RXF 393 renal) was > 100 µM. The TGI (UACC-257 melanoma) was > 100 µM, the TGI (NCI-H23 lung) was > 100 µM and the TGI (MDA-MB-231 breast) was > 100 µM. For the same compound, the TGI (ACHN renal) was > 100 µM, the TGI (COLO 205 colon) was > 100 µM and the TGI (CCRF-CEM leukemia) was > 100 µM. For the same compound, the TGI (DU-145 prostate) was > 100 µM, the TGI (HCC-2998 colon) was > 100 µM and the TGI (HCT-15 colon) was > 100 µM. For the same compound, the TGI (SW-620 colon) was > 100 µM, the TGI (TK-10 renal) was > 100 µM and the TGI (U251 CNS) was > 100 µM. For the same compound, the TGI (HL-60(TB) leukemia) was > 100 µM, the TGI (KM12 colon) was > 100 µM and the TGI (NCI-H226 lung) was > 100 µM. For the same compound, the TGI (SK-MEL-28 melanoma) was > 100 µM, the TGI (A549 NSCLC) was > 100 µM and the TGI (HCT-116 colon) was > 100 µM. The TGI (MCF7 breast) was > 100 µM, the TGI (HT29 colon) was > 100 µM and the TGI (K-562 leukemia) was > 100 µM. The TGI (A498 renal) was > 100 µM, the TGI (SK-MEL-5 melanoma) was > 100 µM and the TGI (SNB-75 CNS) was 38.8 µM. For the same compound, the TGI (MOLT-4 leukemia) was > 100 µM, the TGI (SF-539 CNS) was > 100 µM and the TGI (OVCAR-3 ovarian) was > 100 µM. The TGI (786-0 renal) was > 100 µM.

With `CC1(C)CC(=O)C(Cc2ccccc2)(Cc2ccccc2)C(=O)C1` the TGI (SF-295 CNS) was > 100 µM, the TGI (MALME-3M melanoma) was > 100 µM and the TGI (SF-268 CNS) was > 100 µM. For the same compound, the TGI (SR leukemia) was > 100 µM, the TGI (NCI-H522 lung) was > 100 µM and the TGI (M14 melanoma) was > 100 µM. The TGI (LOX IMVI melanoma) was > 100 µM, the TGI (OVCAR-4 ovarian) was > 100 µM and the TGI (HOP-62 NSCLC) was > 100 µM. For the same compound, the TGI (OVCAR-5 ovarian) was > 100 µM, the TGI (NCI-H460 lung) was > 100 µM and the TGI (NCI/ADR-RES ovarian) was > 100 µM. For the same compound, the TGI (SN12C renal) was > 100 µM, the TGI (OVCAR-8 ovarian) was > 100 µM and the TGI (UO-31 renal) was > 100 µM. The TGI (EKVX NSCLC) was > 100 µM, the TGI (T-47D breast) was > 100 µM and the TGI (UACC-62 melanoma) was > 100 µM. For the same compound, the TGI (HS 578T breast) was > 100 µM, the TGI (SNB-19 CNS) was > 100 µM and the TGI (SK-OV-3 ovarian) was > 100 µM. For the same compound, the TGI (PC-3 prostate) was > 100 µM, the TGI (MDA-N) was > 100 µM and the TGI (BT-549 breast) was > 100 µM. The TGI (CAKI-1 renal) was > 100 µM, the TGI (IGROV1 ovarian) was > 100 µM and the TGI (RXF 393 renal) was > 100 µM. The TGI (UACC-257 melanoma) was > 100 µM, the TGI (NCI-H23 lung) was > 100 µM and the TGI (MDA-MB-231 breast) was > 100 µM. The TGI (ACHN renal) was > 100 µM, the TGI (COLO 205 colon) was > 100 µM and the TGI (CCRF-CEM leukemia) was > 100 µM. For the same compound, the TGI (DU-145 prostate) was > 100 µM, the TGI (HCC-2998 colon) was > 100 µM and the TGI (HCT-15 colon) was > 100 µM. The TGI (SW-620 colon) was > 100 µM, the TGI (TK-10 renal) was > 100 µM and the TGI (U251 CNS) was > 100 µM. The TGI (HL-60(TB) leukemia) was > 100 µM, the TGI (KM12 colon) was > 100 µM and the TGI (NCI-H226 lung) was > 100 µM. The TGI (SK-MEL-28 melanoma) was > 100 µM, the TGI (A549 NSCLC) was > 100 µM and the TGI (HCT-116 colon) was > 100 µM. For the same compound, the TGI (MCF7 breast) was > 100 µM, the TGI (HT29 colon) was > 100 µM and the TGI (K-562 leukemia) was > 100 µM. For the same compound, the TGI (SK-MEL-5 melanoma) was > 100 µM, the TGI (SNB-75 CNS) was > 100 µM and the TGI (SK-MEL-2 melanoma) was > 100 µM. For the same compound, the TGI (MOLT-4 leukemia) was > 100 µM, the TGI (SF-539 CNS) was > 100 µM and the TGI (786-0 renal) was > 100 µM.
